Laboratory results from article PMC12186257, “Serendipitous and Systematic Chemoproteomic Discovery of MBLAC2, HINT1, and NME1‑4 Inhibitors from Histone Deacetylase-Targeting Pharmacophores” (ACS Chemical Biology, 2025).

What was measured:
PDE1C = biological target: T1, PDE1C (Homo sapiens, UniProt Q14123); test: Kinobead competition assay; settings: dose-dependent binding; read-out: affinity PDE1C
T1 construct: endogenous in cells
From the text: (§1) The binding of KV-24 and KV-30 to the nucleotide-binding pocket raises the question of whether these compounds also target other nucleotide-binding proteins, such as kinases. To evaluate potential off-target effects, we performed Kinobead competition assays. This chemoproteomic approach is conceptually very similar to the one used here in that broad spectrum kinase inhibitors are immobilized on beads. […] PDE1C is a cAMP/cGMP nucleotide-binding protein that features two divalent metal cation cofactors. The hydroxamic acid moiety of KV-24 might chelate these metal cofactors, supporting the hypothesis that KV-24 binds the active site of PDE1C. […] With the help of our chemoproteomic platform, future structure–activity relationship (SAR) libraries based on the KV-24 and KV-30 scaffolds may be explored to improve selectivity toward either HINT1, kinase targets, or PDE1C. […]
(§2) LC-MS/MS. The different sample types were measured with different LC-MS/MS settings. MBLAC2 2-dose competition assays were measured with the Lumos1 setup, MBLAC2 9-dose competition assays were measured with the Lumos2 setup, and kinobeads assays were measured with the Eclipse setup.
(§3) Peptides were analyzed via LC–MS/MS on a Dionex Ultimate3000 nano HPLC coupled to either one of two Orbitrap Fusion Lumos mass spectrometers, or to an Orbitrap Eclipse mass spectrometer, operated via the Thermo Scientific Xcalibur software. […]

MERTK = biological target: T2, MERTK (Homo sapiens, UniProt Q12866); test: Kinobead competition assay; type: binding; settings: only kinase among >190
T2 construct: endogenous in cells
T2 sequence (Q12866 21-999): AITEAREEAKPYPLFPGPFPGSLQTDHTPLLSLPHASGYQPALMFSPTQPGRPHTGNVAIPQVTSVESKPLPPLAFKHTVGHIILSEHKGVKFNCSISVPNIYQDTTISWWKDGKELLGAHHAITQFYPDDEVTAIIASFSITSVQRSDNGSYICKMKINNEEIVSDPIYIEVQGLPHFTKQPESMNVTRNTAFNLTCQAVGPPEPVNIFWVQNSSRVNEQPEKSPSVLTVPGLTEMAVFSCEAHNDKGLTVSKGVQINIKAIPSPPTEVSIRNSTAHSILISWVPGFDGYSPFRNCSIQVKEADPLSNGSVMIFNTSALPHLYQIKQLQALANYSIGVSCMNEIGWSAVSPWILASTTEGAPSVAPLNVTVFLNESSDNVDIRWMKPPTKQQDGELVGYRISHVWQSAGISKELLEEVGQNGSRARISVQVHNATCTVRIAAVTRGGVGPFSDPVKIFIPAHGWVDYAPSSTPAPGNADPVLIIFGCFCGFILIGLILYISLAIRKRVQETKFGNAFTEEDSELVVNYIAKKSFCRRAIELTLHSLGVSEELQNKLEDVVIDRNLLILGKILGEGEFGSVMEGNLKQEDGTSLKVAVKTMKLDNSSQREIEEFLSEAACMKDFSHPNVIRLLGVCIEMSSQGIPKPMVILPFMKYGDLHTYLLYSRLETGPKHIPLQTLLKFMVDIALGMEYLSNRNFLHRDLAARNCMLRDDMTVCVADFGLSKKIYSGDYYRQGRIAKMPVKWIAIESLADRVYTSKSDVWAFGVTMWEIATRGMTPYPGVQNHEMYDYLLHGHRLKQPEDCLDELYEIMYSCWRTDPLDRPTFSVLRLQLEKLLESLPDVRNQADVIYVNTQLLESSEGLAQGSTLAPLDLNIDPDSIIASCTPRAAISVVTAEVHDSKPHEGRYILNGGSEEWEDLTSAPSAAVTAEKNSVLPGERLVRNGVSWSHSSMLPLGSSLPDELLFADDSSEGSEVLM
From the text: as §1, §2, §3

T1 sequence (Q14123 whole entry): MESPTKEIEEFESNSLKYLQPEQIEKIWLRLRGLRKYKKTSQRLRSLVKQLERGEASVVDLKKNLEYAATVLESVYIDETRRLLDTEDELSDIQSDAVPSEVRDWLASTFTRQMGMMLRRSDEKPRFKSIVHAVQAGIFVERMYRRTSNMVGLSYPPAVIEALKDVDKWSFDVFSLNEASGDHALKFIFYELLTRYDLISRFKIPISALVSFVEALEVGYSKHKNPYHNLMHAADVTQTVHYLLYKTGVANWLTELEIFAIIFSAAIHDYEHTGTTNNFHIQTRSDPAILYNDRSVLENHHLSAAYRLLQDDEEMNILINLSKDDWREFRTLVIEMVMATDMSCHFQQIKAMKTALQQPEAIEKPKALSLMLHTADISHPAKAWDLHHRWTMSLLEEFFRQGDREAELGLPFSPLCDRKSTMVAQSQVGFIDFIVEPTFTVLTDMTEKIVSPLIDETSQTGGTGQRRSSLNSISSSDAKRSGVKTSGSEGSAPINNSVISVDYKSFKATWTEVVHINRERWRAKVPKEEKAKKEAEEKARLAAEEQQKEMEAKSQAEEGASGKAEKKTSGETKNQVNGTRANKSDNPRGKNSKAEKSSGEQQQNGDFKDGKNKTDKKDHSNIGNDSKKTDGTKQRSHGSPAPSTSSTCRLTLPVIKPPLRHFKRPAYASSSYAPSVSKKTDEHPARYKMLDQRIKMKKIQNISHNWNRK

Kd (PDE1C) [nM]	MERTK binding (MERTK)	SMILES
~2000	–	O=C(NO)c1ccc(-c2nc3ccccc3n3cccc23)cc1 [KV-24]
–	potential binding	O=C(NO)c1ccc(-c2nc3ccccc3c3ccccc23)cc1 [KV-30]
